Data on ten molecules can be found in ChEMBL document CHEMBL5344477, “Discovery of benzoheterocyclic-substituted amide derivatives as apoptosis signal-regulating kinase 1 (ASK1) inhibitors” (RSC Med Chem, 2024).

As usually defined, the AUC(0-t) is the area under the concentration-time curve up to a stated or last time point. Read a low AUC(0-t) as low exposure. The term Cmax denotes the maximum level reached in the sampled fluid or tissue. Usually half-life stands for the time in which the quantity being followed falls by half. One may read the CL/F as the apparent clearance, not corrected for the fraction that reaches the circulation.

Data set [1] is described as follows: AUClast in Sprague-Dawley rat at 1 mg/kg, iv measured upto 24 hrs by LC-MS/MS analysis. Also noted: dose 1 mg/kg, time < 24 hrs, route iv. The class given is ADME, organism-based. Conditions: in vivo.
A short description of data set [2]: Cmax in Sprague-Dawley rat at 1 mg/kg, iv measured upto 24 hrs by LC-MS/MS analysis. The note with it: in vivo. Further details: dose 1 mg/kg, time < 24 hrs, route iv. It counts as ADME, organism-based.
A short description of data set [3]: Cmax in Sprague-Dawley rat at 5 mg/kg, po measured upto 24 hrs by LC-MS/MS analysis. The note with it: in vivo. It counts as ADME, organism-based. Also noted: dose 5 mg/kg, time < 24 hrs, route po.
Data set [4] in a line: Half life in Sprague-Dawley rat at 1 mg/kg, iv measured upto 24 hrs by LC-MS/MS analysis. The class given is ADME, organism-based. Conditions: in vivo.
The nature of data set [5]: AUClast in Sprague-Dawley rat at 5 mg/kg, po measured upto 24 hrs by LC-MS/MS analysis. Also noted: dose 5 mg/kg, time < 24 hrs, route po. Conditions: in vivo. The class given is ADME, organism-based.
Data set [6] can be described thus: Metabolic stability in human liver microsomes assessed as half life at 1 uM measured upto 90 mins by LC-MS/MS analysis. It counts as ADME, Microsome.
Data set [7] can be described thus: Volume of distribution at steady state in Sprague-Dawley rat at 1 mg/kg, iv measured upto 24 hrs by LC-MS/MS analysis. The class given is ADME, organism-based. The note with it: in vivo, read-out: Vdss.
Data set [8] can be described thus: Metabolic stability in human liver microsomes assessed as clearance at 1 uM measured upto 90 mins by LC-MS/MS analysis. It counts as ADME, Microsome. Conditions: read-out: CLH.
Data set [9] can be described thus: Apparent […] clearance in Sprague-Dawley rat at 1 mg/kg, iv measured upto 24 hrs by LC-MS/MS analysis. The class given is ADME, organism-based. The note with it: in vivo.
A short description of data set [10]: Oral bioavailability in Sprague-Dawley rat at 5 mg/kg measured upto 24 hrs by LC-MS/MS analysis. The class given is ADME, organism-based. The note with it: in vivo.
Data set [11] in a line: Half life in Sprague-Dawley rat at 5 mg/kg, po measured upto 24 hrs by LC-MS/MS analysis. It counts as ADME, organism-based. Conditions: in vivo.
A short description of data set [12]: Metabolic stability in rat liver microsomes assessed as half life at 1 uM measured upto 90 mins by LC-MS/MS analysis. The class given is ADME, Microsome. (Microsomes from liver hold many membrane-bound enzymes, among them those of drug oxidation.)
Data set [13] in a line: Metabolic stability in rat liver microsomes assessed as clearance at 1 uM measured upto 90 mins by LC-MS/MS analysis. It counts as ADME, Microsome. The note with it: read-out: CLH.

As for `CC(C)n1cnnc1-c1cccc(NC(=O)c2cc3c(cc2F)CCC(=O)N3C)n1`, the AUC(0-t) at 24 h in data set [1] stood at 668 ng·h/mL; in data set [5], 2660 ng·h/mL. The Cmax was determined as 594 ng/mL in data set [2] and 964 ng/mL in [3]. The figures for the half-life in data set [4] and in data set [11] were 51.6 min and 67.8 min, respectively. The figures for the half-life at 1 µM in data set [6] and in data set [12] were 237 min and 72.3 min, respectively. For the same molecule, the Vd in data set [7] is 1.32 L/kg. In addition, the CLint scaled at 1 µM in data set [8] was found to be 7.3 mL/min/kg; in data set [13] it was 34.3 mL/min/kg. The CL/F in data set [9] was 24.8 mL/min/kg. In addition, the bioavailability in data set [10] was found to be 80.7%.
Take `CC(C)n1cnnc1-c1cccc(NC(=O)c2cc3c(cc2F)C(C)(C)CC(=O)N3)n1`: the AUC(0-t) at 24 h in data set [1] was 1200 ng·h/mL; in data set [5], 4560 ng·h/mL. The peak concentration (Cmax) in data set [2] worked out at 945 ng/mL; in data set [3], 1420 ng/mL. Besides, the half-life was 59.4 min in [4] and 122 min in data set [11]. Moreover, the Vd in data set [7] is 1.07 L/kg. In data set [9], the CL/F is 13.8 mL/min/kg. In [10], the bioavailability stood at 75.9%.
For `CC(CO)n1cnnc1-c1cccc(NC(=O)c2cc3c(cc2F)CCCC(=O)N3)n1` (stereo not drawn), the AUC(0-t) at 24 h in data set [1] stood at 108 ng·h/mL. In [2], the Cmax was determined as 262 ng/mL. Moreover, in data set [4], the half-life was 16.8 min. Further, the half-life at 1 µM in data set [6] worked out at 980 min; in data set [12], 262 min. In addition, the Vd in data set [7] turned out to be 3.01 L/kg. Further, the CLint scaled at 1 µM in data set [8] is 1.8 mL/min/kg; in data set [13], 9.5 mL/min/kg. Besides, in data set [9], the CL/F was 154 mL/min/kg.
As for `CC(C)n1cnnc1-c1cccc(NC(=O)c2cc3c(cc2F)CCCC(=O)N3C)n1`, the AUC(0-t) at 24 h in [1] came out at 381 ng·h/mL; in data set [5], 2210 ng·h/mL. Besides, the Cmax in data set [2] turned out to be 597 ng/mL; in data set [3], 582 ng/mL. The half-life in data set [4] was 43.8 min; in [11], 142 min. Further, the Vd in [7] amounted to 1.56 L/kg. The CL/F in data set [9] was 43.7 mL/min/kg. In addition, the bioavailability in data set [10] amounted to 116%.
Regarding `Cc1cc(F)c(C(=O)Nc2cccc(-c3nncn3C(C)C)n2)cc1-n1cnc(C2CC2)c1` [SELONSERTIB], the figures for the peak concentration (Cmax) in [2] and in data set [3] were 3030 ng/mL and 6030 ng/mL, respectively. The same molecule gave an AUC(0-t) at 24 h in [5] of 38300 ng·h/mL. In data set [7], the Vd came to 0.27 L/kg. In addition, the bioavailability in [10] came to 129%.
On to `O=C(Nc1cccc(-c2nncn2-c2ccccc2)n1)c1cc2c(cc1F)OCc1cncn1-2`, for which the half-life at 1 µM in data set [6] came to 65.9 min; in [12], 15.5 min. The CLint scaled at 1 µM in data set [8] came to 26.4 mL/min/kg; in data set [13], 160 mL/min/kg.
With `O=C(Nc1cccc(-c2nncn2CC2CC2)n1)c1cc2c(cc1F)OCc1cncn1-2`, the figures for the AUC(0-t) at 24 h in data set [1] and in data set [5] were 706 ng·h/mL and 7820 ng·h/mL, respectively. For the same molecule, the Cmax in [2] worked out at 804 ng/mL; in data set [3], 3520 ng/mL. Further, the figures for the half-life in [4] and in data set [11] were 45 min and 62.4 min, respectively. Also, the half-life at 1 µM in data set [6] is 72 min; in data set [12], 16.5 min. The Vd in data set [7] was determined as 1.13 L/kg. Moreover, the CLint scaled at 1 µM came out at 24.1 mL/min/kg in data set [8] and 151 mL/min/kg in data set [13]. Further, the CL/F in data set [9] was 23.7 mL/min/kg.
Turning to `O=C(Nc1cccc(-c2nncn2C2CC2)n1)c1cc2c(cc1F)OCc1cncn1-2`, the half-life at 1 µM in data set [6] came out at 80.2 min; in [12] it was 13.7 min. The CLint scaled at 1 µM in [8] stood at 21.7 mL/min/kg; in data set [13], 181 mL/min/kg.
With `CC(C)N1C(=O)COc2cc(F)c(C(=O)Nc3cccc(-c4nncn4C(C)C)n3)cc21`, the half-life at 1 µM is 55 min in data set [6] and 17.8 min in [12]. Besides, the results for the CLint scaled at 1 µM in data set [8] and in data set [13] were 31.6 mL/min/kg and 140 mL/min/kg, respectively.
On the same counts, the results for `O=C(Nc1cccc(-c2nncn2C2CCCC2)n1)c1cc2c(cc1F)OCc1cncn1-2` are 21 min, 10.8 min, 82.7 mL/min/kg and 230 mL/min/kg.
